Measurements taken from patent US20160311760A1, “COMPOUNDS FOR TREATMENT OF CARDIAC ARRHYTHMIAS” (ELEX BIOTECH, LLC, priority 2013, published 2016).

What was measured:
R176Q/+ mice = assay: Arrhythmias (ventricular tachycardia) after cardiac pacing / programmed electrical stimulation in CPVT mice, whole animal level; assay type: in vivo, mouse
Source text: Ventricular tachycardia (or VT) is a type of tachycardia, or a rapid heart beat that arises from improper electrical activity of the heart that presents as a rapid heart rhythm. VT is associated with the bottom chambers of the heart, called the ventricles, which are pumping chambers of the heart. […] Therein, electrical signals for four different CPVT mice are shown. Wild type (or WT) signal 210 is provided for reference to illustrate a sinus rhythm (e.g., L2-ECG, lead 2 of the surface ECG). Atrial and ventricular intracardiac electrocardiogram signals are also provided for reference.

in vitro [1] = conditions: human
SERCA2 = SERCA2 (Homo sapiens, UniProt P16615); assay: ATPase activity of SERCA2 versus concentration; assay type: biochemical
Protocol: (§1) For example, the concentration of lead compound Compound 1 that suppressed ventricular tachycardia is approximately 0.5% of compound K201 (JTV519) that was previously used to inhibit arrhythmias in a similar mouse model. […] Therefore, advantages exist with regard to reduction of dosage response time compared to previously used drugs to inhibit arrhythmias. […] While Compound 1 inhibits sparks and arrhythmias at 35 nM, the ATPase activity of SERCA2 has been measured versus concentration of Compound 1. At concentrations of 1 μM, 10 μM and 50 μM, ATPase activity was unaffected (data not shown). The data shown in FIGS. 2 and 3 have been repeated several times with different animals (e.g., rabbit model).

in vitro [2] = conditions: human; remark: listed apart in the source
[3] = Effect on the length of the AP
Protocol: as §1

RyR2 [4] = assay: Ca2+ spark frequency assay in ventricular myocytes from CPVT mouse model (R176Q/+); assay type: cell-based; conditions: versus tetracaine
Source text: (§2) Therein, calcium spark frequency data are shown in the presence of increasing amounts of added compound. IC50 is a measure of the effectiveness of a substance in inhibiting a particular biological process or function. Calcium spark frequency is plotted along the y-axis and compound concentration is plotted along the x-axis. Example dose-response curve 120 is included to illustrate the inhibitory effect of Compound 1 on spark frequency for the cells derived from a CPVT mouse model. The quantitative value of IC50 can be determined by identifying the concentration where half of the maximum biological response, such as the calcium spark response, is inhibited. For example, at lower compound concentrations dose-response curve 110 has a higher level of calcium spark frequency, whereas at higher compound concentrations, a transition of the calcium spark frequency to a lower level is observed. The concentration at which the sigmoidal curve of data response curve 120 has a spark frequency reduced by half corresponds to the IC50. […] Thus, as one example, a method for treating cardiac arrhythmias may include administering an amount of Compound 1 to a subject afflicted with heart arrhythmias. The administration may be performed via known routes, such as oral, epidermal, subcutaneous, intravenous, peritoneal, etc.
(§3) Functional Assays in CPVT mouse cells may include isolating ventricular cardiomyocytes from adult (2-3 month-old) R176Q/+ mice or WT littermates. In one exemplary assay, myocytes were loaded with 2 μM Fluo-4-AM in a normal Tyrode solution containing 1.8 mM Ca2+ for 30 minutes at room temperature before washing the cells with Tyrode solution for 15 minutes for de-esterification and transfering to a chamber equipped with parallel platinum electrodes.
(§4) After baseline measurements were completed, myocytes were exposed to the test lead compound. After a 5 min superfusion period, Ca2+ sparks were again measured in the same cell in the presence of the drug compound. The frequency of Ca2+ sparks (CaSpF) were calculated, e.g., using SparkMaster (Picht, E., et al., SparkMaster: automated calcium spark analysis with ImageJ. Am J Physiol Cell Physiol, 2007. 293(3): p. C1073-81), and applications before and after inclusion of the test compound were compared. A detailed dose-response relationship and measurements of inhibition of arrhythmogenic Ca2+ waves in ventricular myocytes from a CPVT mouse model (R176Q/+) were then completed on those compounds showing a significant decrease in spark frequency at 0.5 μM. At the conclusion of these experiments, the Ca2+ spark inhibition rate is calculated as a function of concentration for each compound tested, and an IC50 value determined for each drug compound. […] FIG. 4 compares an exemplary confocal line-scan image of Ca2+ spark recordings from ventricular myocytes isolated from wild-type (WT) mice at 410 relative to those isolated from S2814D mice as shown at 420.
(§5) The above-discussed Ca2+ spark assay was used with R176Q/+ myocytes as an initial screening assay to test the ability of new compounds to inhibit spontaneous pathological SR Ca2+ release in ventricular myocytes.

RyR2 [5] = biological target: T1, RyR2 (Mus musculus, UniProt E9Q401); assay: as above; assay type: cell-based; conditions: cells derived from a CPVT mouse model (R176Q/+ ventricular myocytes); read-out: IC50 (inhibition of calcium spark frequency)
T1 construct: other: cells derived from a CPVT mouse model (R176Q/+ ventricular myocyte)
Source text: as §2, §3, §4, §5

RyR = RyR (Oryctolagus cuniculus, UniProt P11716); conditions: literature value; cited from earlier work
Cytotoxicity in HEK293 = conditions: human, HEK293 cells
Cytotoxicity in HepG2 = conditions: human, HepG2 cells

T1 sequence (E9Q401 whole entry R176Q, form open): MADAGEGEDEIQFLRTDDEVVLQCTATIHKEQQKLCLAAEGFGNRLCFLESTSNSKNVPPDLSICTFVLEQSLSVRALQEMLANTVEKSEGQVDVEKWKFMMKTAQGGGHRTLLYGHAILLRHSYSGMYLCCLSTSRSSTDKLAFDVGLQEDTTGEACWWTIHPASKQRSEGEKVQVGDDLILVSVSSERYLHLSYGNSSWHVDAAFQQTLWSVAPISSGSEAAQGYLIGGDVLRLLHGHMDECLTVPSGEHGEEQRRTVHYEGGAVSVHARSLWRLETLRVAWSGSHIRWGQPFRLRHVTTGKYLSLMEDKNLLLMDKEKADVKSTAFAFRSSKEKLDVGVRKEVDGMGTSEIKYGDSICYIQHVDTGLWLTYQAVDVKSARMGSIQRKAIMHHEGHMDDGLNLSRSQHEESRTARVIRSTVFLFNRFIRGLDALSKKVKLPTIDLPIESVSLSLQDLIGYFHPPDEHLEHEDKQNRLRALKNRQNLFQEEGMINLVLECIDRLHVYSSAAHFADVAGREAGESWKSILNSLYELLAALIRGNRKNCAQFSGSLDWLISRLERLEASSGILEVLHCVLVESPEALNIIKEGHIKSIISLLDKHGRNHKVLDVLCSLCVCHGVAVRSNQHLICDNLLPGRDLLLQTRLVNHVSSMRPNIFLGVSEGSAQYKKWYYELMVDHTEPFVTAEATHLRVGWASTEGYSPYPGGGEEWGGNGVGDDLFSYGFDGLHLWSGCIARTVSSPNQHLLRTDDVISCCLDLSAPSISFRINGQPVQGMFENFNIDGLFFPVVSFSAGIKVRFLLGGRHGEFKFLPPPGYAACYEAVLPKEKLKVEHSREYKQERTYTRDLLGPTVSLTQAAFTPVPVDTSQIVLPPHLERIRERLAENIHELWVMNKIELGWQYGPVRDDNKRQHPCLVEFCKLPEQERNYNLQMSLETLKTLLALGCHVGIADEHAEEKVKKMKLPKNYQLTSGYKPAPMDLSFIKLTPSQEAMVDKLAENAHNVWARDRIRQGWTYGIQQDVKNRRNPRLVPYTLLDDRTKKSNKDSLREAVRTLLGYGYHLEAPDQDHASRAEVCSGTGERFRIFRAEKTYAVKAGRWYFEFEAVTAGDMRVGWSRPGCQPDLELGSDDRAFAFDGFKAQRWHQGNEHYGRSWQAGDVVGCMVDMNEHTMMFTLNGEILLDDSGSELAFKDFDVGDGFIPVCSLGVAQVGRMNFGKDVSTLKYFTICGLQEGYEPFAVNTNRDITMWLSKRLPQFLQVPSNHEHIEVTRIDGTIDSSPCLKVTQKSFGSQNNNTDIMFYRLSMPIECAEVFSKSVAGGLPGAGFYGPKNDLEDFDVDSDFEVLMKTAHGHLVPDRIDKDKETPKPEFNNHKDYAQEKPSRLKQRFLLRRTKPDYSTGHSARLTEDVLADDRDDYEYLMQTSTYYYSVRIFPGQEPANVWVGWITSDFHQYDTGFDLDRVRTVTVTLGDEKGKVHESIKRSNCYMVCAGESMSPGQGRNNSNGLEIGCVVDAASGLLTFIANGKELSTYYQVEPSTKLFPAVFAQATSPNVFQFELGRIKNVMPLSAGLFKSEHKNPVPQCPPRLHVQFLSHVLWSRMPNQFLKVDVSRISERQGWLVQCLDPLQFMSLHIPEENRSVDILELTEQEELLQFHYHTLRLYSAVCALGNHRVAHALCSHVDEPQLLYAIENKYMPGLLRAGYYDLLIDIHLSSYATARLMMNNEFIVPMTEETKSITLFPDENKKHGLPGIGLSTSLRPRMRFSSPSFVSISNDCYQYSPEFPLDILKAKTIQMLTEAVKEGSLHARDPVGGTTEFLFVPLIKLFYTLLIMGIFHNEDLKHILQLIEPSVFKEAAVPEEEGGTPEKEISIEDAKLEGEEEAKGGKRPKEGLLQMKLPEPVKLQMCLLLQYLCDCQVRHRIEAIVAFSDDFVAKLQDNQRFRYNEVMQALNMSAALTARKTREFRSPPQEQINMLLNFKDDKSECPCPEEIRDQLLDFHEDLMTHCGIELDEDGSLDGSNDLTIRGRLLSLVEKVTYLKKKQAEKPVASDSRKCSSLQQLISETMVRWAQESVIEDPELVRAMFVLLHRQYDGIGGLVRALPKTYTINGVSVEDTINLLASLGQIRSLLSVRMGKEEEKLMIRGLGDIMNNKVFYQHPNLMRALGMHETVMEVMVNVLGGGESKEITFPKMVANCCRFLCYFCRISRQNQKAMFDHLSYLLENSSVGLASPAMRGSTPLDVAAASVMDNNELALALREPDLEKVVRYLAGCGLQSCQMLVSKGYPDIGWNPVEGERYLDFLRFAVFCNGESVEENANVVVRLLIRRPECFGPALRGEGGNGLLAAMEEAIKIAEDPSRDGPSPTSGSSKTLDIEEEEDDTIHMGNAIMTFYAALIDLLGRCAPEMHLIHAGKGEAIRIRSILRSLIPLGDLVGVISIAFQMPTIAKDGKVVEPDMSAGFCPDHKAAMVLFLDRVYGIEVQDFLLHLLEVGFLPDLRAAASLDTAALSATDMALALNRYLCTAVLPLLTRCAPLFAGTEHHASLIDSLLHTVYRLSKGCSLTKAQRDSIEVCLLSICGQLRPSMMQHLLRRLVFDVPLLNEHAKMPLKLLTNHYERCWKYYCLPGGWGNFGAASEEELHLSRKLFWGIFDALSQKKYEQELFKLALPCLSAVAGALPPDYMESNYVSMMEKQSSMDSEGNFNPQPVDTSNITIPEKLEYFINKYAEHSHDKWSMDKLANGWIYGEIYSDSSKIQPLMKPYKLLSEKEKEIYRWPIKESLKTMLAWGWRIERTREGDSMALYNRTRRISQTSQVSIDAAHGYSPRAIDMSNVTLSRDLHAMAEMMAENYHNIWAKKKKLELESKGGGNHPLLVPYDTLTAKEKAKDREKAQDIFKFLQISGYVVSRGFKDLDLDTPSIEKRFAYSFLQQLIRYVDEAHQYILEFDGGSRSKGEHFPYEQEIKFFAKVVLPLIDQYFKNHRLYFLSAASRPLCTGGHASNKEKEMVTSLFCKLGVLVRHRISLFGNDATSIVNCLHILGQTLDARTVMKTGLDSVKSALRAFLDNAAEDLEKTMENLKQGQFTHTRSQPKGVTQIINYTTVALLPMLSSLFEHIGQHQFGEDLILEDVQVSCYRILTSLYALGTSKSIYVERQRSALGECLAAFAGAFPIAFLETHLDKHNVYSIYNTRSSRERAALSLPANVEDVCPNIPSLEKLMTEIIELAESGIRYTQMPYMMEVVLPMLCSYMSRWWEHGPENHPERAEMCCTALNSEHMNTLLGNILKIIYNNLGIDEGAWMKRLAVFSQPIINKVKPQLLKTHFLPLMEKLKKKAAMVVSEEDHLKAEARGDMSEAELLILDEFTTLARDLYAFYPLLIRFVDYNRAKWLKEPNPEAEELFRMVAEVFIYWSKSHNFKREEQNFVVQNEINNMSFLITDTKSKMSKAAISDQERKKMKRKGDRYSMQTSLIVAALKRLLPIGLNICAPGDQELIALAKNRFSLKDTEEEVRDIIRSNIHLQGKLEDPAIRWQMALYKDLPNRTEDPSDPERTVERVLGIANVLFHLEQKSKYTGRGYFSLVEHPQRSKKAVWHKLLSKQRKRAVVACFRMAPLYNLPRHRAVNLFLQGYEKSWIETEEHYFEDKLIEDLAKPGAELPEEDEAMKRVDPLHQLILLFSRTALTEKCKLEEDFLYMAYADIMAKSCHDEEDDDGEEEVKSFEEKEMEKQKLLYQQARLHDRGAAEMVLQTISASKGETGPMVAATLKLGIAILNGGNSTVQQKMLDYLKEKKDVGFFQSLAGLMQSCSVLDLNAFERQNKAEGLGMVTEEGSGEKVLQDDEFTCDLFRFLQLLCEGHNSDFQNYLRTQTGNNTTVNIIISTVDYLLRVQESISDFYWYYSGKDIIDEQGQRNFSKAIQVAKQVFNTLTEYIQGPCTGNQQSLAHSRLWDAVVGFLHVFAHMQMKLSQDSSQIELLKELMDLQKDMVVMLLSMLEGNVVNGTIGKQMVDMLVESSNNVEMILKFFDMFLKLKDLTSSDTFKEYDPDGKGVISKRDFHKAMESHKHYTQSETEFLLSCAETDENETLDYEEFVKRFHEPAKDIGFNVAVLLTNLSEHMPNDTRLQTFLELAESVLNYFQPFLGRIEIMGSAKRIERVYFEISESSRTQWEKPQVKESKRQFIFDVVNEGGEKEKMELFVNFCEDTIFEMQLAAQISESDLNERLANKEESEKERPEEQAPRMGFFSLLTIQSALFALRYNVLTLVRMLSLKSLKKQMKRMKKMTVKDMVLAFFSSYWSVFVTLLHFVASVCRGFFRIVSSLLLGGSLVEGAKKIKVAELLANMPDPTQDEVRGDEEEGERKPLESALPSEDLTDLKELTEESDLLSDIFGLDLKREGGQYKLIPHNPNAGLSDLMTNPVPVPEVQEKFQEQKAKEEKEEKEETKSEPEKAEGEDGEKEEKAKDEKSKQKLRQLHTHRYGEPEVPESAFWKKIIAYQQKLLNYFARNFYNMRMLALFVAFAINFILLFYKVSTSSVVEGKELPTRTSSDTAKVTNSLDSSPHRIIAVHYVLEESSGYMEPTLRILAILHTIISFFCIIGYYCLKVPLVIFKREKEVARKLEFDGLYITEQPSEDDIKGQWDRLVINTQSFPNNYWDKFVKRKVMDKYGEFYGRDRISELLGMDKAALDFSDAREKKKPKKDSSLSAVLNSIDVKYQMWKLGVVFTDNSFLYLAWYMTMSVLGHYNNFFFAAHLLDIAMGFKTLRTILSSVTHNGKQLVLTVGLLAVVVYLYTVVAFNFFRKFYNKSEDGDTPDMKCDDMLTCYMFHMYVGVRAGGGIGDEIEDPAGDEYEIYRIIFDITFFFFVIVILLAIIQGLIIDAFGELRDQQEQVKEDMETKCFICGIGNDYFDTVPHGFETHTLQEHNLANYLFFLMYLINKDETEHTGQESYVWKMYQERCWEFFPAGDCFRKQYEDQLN

CCCCNc1ccc(C(=O)OCCN(CC)CC)c(OC)c1 [Compound 1]
level at which arrhythmias are decreased in the whole animal (R176Q/+ mice; CPVT mice, whole animal level): 2.5 µg/kg
concentration with antiarrhythmic activity, as share of that of flecainide (R176Q/+ mice; CPVT mouse model, versus flecainide): 0.1%
arrhythmic development following pacing (R176Q/+ mice; R176Q/+ mice, cardiac pacing, ECG (FIG. 2)): protected from arrhythmic development following pacing
time to inhibition of arrhythmias (R176Q/+ mice; injected in the tail of the mouse): ≤ 10 min
concentration that suppressed ventricular tachycardia, as share of that of K201 (JTV519) (R176Q/+ mice; versus K201 in a similar mouse model): approximately 0.5%
IC50 (in vitro [1]): > 50 µM
ATPase activity of SERCA2 (SERCA2; 1 μM): unaffected
ATPase activity of SERCA2 (SERCA2; 10 μM): unaffected
ATPase activity of SERCA2 (SERCA2; 50 μM): unaffected
IC50 (in vitro [2]): > 50 µM
effect on the length of the AP [3]: No indication has been observed that Compound 1 has any effect on the length of the AP
potency relative to the parent molecule tetracaine (inhibiting RyR2 activity / CRC) (RyR2 [4]): ~3000 times
IC50 (RyR2 [5]): 0.035 µM

CCCCNc1cc(OC)c(C(=O)OCCN(CC)CC)cc1Cl [Compound 2]
IC50 (in vitro [1]): > 50 µM
IC50 (in vitro [2]): > 50 µM
IC50 (RyR2 [5]): 0.011 µM

CCCCNc1ccc(C(=O)O)cc1N(CCCC)CCCC [Compound 3]
IC50 (in vitro [1]): > 50 µM
IC50 (in vitro [2]): > 50 µM
IC50 (RyR2 [5]): 0.5 µM

CCCCNc1ccc(OC(C)=O)cc1C [Compound 4]
IC50 (RyR2 [5]): 0.63 µM

CCCCNc1ccc(C(=O)OCCNCC)cc1C [Compound 5]
IC50 (in vitro [1]): > 50 µM
IC50 (in vitro [2]): > 50 µM
IC50 (RyR2 [5]): 0.8 µM

CCCCNc1ccc(C(=O)OCCN(C)C)cc1.Cl [Tetracaine]
concentration at which the RyR is inhibited (RyR): ~150 µM
IC50 (Cytotoxicity in HEK293): > 50 µM
IC50 (Cytotoxicity in HepG2): > 50 µM
